Test results: patent publication US20110275559A1, “Long-Acting Y2 and/or Y4 Receptor Agonists” (Novo Nordisk A/S, priority 2008, published 2011)
Where two headings read alike, the source gives them in different places. *1 amine or outer side, *2 acyl side, *3 side chain or, on linkers, in order; H or OH if unused. Where a SMILES comes first, the peptide text is derived from it. Side-chain parts run from the residue outwards. The star is where a group is joined. C20 diacid = O=C(O)CCCCCCCCCCCCCCCCCCC(=O)*; C18 diacid = O=C(O)CCCCCCCCCCCCCCCCC(=O)*; γGlu = O=C(O)[C@H](CCC(=O)[*:2])N[*:1]; Trx = NC[C@H]1CC[C@H](C(=O)O)CC1; AEEA = NCCOCCOCC(=O)O

What was measured:
Y2 receptor = molecular target: T1, Y2 receptor (Homo sapiens, UniProt P49146); test: Y2 receptor ACTOne based FLIPR assay (cAMP biosensor); assay type: cell-based
T1 construct: host or cells: ACTOne HEK-293 cells
T1 sequence (P49146 1-381): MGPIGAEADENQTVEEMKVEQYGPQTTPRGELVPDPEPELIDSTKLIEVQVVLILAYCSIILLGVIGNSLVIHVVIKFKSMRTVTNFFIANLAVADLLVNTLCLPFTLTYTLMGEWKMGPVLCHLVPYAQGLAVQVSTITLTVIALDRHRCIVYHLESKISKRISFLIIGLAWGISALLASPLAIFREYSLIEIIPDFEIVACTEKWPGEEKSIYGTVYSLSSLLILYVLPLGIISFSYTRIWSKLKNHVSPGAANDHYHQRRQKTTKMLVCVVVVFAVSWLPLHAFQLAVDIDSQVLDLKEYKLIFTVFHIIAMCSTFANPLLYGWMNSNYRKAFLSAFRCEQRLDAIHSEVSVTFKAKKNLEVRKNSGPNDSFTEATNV
Excerpt: ACTOne™ is an easily scaleable cAMP biosensor HTS platform for measurement of Gs and Gi coupled 7™ receptor signalling from BD Biosciences (San Jose, Calif.). The cells express a biosensor developed around a modified rat olfactory cyclic nucleotide gated (CNG) calcium channel—a fairly non-discriminatory ion channel that responds to cAMP and cGMP. The CNG has been engineered to be cAMP selective and thus function as a cAMP responsive biosensor that signals through calcium or membrane potential responsive dyes. Y2 or Y4 receptor expressing ACTOne HEK-293 cells are obtained from BD Biosciences. The cells are loaded with a calcium responsive dye that only distributes in the cytoplasm. Probenecid, an inhibitor of the organic anion transporter is added to prevent the dye from leaving the cell. A phosphodiesterase inhibitor is added to prevent formatted cAMP from being degraded. Isoproterenol (an β1/β2 agonist) is added to activate the adenylate cyclase. When an Y2 or Y4 receptor agonist is added, the adenylate cyclase is inactivated. The decreased calcium concentration in the cytoplasm is then detected as an increase in fluorescence. Together with the test substance, Isoproterenol at a concentration matching EC80, is added to all wells. • The cells are plated out in Greiner 384-well plates. […] The plates are covered with tinfoil to avoid light (the dye can be excited by the daylight, which results in higher baseline and variation). • The FLIPR (FLIPRtetra from Molecular Devices, CA, USA) adds 1 μl sample and 1 μl isoproterenol (0.05 μM final concentration) at the same time. • The fluorescence signal from the wells is measured 330 seconds after sample addition on the FLIPR.

in vivo = details: Göttingen, minipig, iv
Procedure: (§1) The mini-pigs had two central venous catheters inserted which were used for intra venous (i.v.) dosing and bloodsampling. Compound was dissolved in 50 mM K2HPO4, 0.05% tween 80, pH=8.0 to a concentration of 180 nmol/ml. The pigs were dosed with 6 nmol compound/kg body weight. […] The blood samples were collected into test tubes containing EDTA buffer for stabilization and kept on ice for max. 20 minutes before centrifugation. The centrifugation procedure to separate plasma was; 4° C., 3000 rpm for 10 minutes. Plasma were collected and immediately transferred to Micronic tubes stored at −20° C. until assayed.
An additional mini-pig PK assay was used for measuring PK of the compounds of the invention. […] The animals had two central venous catheters inserted which were used for intra venous (i.v.) dosing and blood sampling. Compounds were dissolved in 10 mM Na2HPO4, 150 mM NaCl, 0.01% tween 80, pH=4.0 to concentrations in the range of 40 nmol/ml to 200 nmol/ml. The mini-pigs were dosed i.v. with 10 nmol compound/kg body weight, occasionally other doses such as 4 nmol/kg, 30 nmol/kg or 50 nmol/kg were administered. Each compound was dosed to 3 or 4 mini-pigs, and two compounds may be given simultaneously to the same animal. Blood were sampled pre-dose and 12 times during the first 10 hours post-dose. Blood were furthermore sampled once daily until 13 days post dosing. The blood samples were collected into test tubes containing EDTA buffer, trasylol and Val-Pyr for stabilization and kept on ice for max. 20 minutes. Samples were centrifuged at 4° C., 2000G for 10 minutes to separate plasma. Plasma were collected and immediately transferred to Micronic tubes stored at −20° C. until assayed.
Plasma samples were analysed by LC-MS on an LTQ-Orbitrap (ThermoFisher Scientific, Bremen) to which Accela HPLC pumps and an autosampler were connected (both from ThermoFisher). […] HPLC was performed on a Jupiter Proteo column (4μ) 90A (50×2.0 mm ID). […] The flow rate was 0.3 ml/min. For analysis of plasma samples, 30 μl plasma was precipitated with 90 μl ethanol. […] The heptane phase was removed after 5 min and the remaining solution was analysed by LC-MS as described above. For construction of plasma standards, compound was spiked to plasma (minipig) at the following concentrations: 1 nM, 2 nM, 5 nM, 10 nM, 20 nM, 50 nM, 100 nM, 200 nM. The plasma standards were treated as the samples. The lower limit of quantification was estimated to 2 nM.
Non-compartmental analysis (NCA): Plasma concentration-time profiles were analyzed by non-compartmental pharmacokinetics analysis (NCA) using WinNonlin Professional 5.0 (Pharsight Inc., Mountain View, Calif., USA). NCA was performed using the individual plasma concentration-time profiles from each animal.
For determination of plasma concentration of the PYY and PP peptide derivative or analogues thereof the following Methods 1-4 were used.
as §1, with “bloodsampling. The compound” for “bloodsampling. Compound”, “to an appropriate” for “to a”, “concentration (e.g. 25-500 nmol/mL).” for “concentration of 180 nmol/ml.”, “dosed intravenously (i.v.) or subcutaneously (s.c.)” for “dosed”, “with between 1 and 30” for “with 6”, “buffer (with Aprotinin 15000 KIE/mL and Val-Pyr 0.30 mM)” for “buffer”
An additional mini-pig PK assay was used for measuring PK of the compounds of the invention. […] The animals had two central venous catheters inserted which were used for intra venous (i.v.) dosing and blood sampling.

[1] = Table 2, PP analogues, ACTOne HEK-293 cells, read-out: Y2 cAMP EC50

CC[C@H](C)[C@H](NC(=O)[C@H](Cc1ccc(O)cc1)NC(=O)[C@H](CCCCNC(=O)COCCOCCNC(=O)COCCOCCNC(=O)CC[C@H](NC(=O)CCCCCCCCCCCCCCCCC(=O)O)C(=O)O)NC(=O)[C@H](CCCNC(=N)N)NC(=O)[C@H](CC(C)C)NC(=O)[C@H](CC(=O)O)NC(=O)[C@H](C)NC(=O)[C@H](C)NC(=O)[C@H](Cc1ccc(O)cc1)NC(=O)[C@H](CCC(N)=O)NC(=O)[C@H](C)NC(=O)[C@H](CC(C)C)NC(=O)[C@H](CCC(N)=O)NC(=O)[C@H](CCC(=O)O)NC(=O)[C@@H]1CCCN1C(=O)[C@@H](NC(=O)[C@H](C)NC(=O)[C@H](CC(N)=O)NC(=O)[C@H](CC(=O)O)NC(=O)CNC(=O)[C@@H]1CCCN1C(=O)[C@H](Cc1ccc(O)cc1)NC(=O)[C@@H](NC(=O)[C@@H]1CCCN1C(=O)[C@H](CCC(=O)O)NC(=O)[C@H](CC(C)C)NC(=O)[C@@H]1CCCN1)C(C)C)[C@@H](C)O)C(=O)N[C@@H](CC(N)=O)C(=O)N[C@@H](CC(C)C)C(=O)N[C@@H](CC(C)C)C(=O)N[C@H](C(=O)N[C@@H](CCCNC(=N)N)C(=O)N1CCC[C@H]1C(=O)N[C@@H](CCCNC(=N)N)C(=O)N[C@@H](Cc1ccc(O)cc1)C(N)=O)[C@@H](C)O [SEQ ID NO: 46, N-epsilon26-[2-(2-{2-[2-(2-{2-[(S)-4-Carboxy-4-(17-carboxyheptadecanoylamino)butyrylamino]ethoxy}ethoxy)acetylamino]-ethoxy}ethoxy)acetyl][Leu17,Lys26,Leu30]hPP2-36] (H-PLEPVYPGDNATPEQLAQYAADLRK([AEEA-AEEA-γGlu-C18 diacid])YINLLTRPRY-NH2; N-terminus and C-terminus assumed)
EC50 (Y2 receptor; [1]): > 1000 nM
half-life (in vivo; 4 nmol/kg): 62 h

CC[C@H](C)[C@H](NC(=O)[C@H](Cc1ccc(O)cc1)NC(=O)[C@H](CCCNC(=N)N)NC(=O)[C@H](CCCNC(=N)N)NC(=O)[C@H](CC(C)C)NC(=O)[C@H](CC(=O)O)NC(=O)[C@H](C)NC(=O)[C@H](C)NC(=O)[C@H](Cc1ccc(O)cc1)NC(=O)[C@H](CCC(N)=O)NC(=O)[C@H](C)NC(=O)[C@H](CC(C)C)NC(=O)[C@H](CCC(N)=O)NC(=O)[C@H](CCC(=O)O)NC(=O)[C@@H]1CCCN1C(=O)[C@@H](NC(=O)[C@H](C)NC(=O)[C@H](CC(N)=O)NC(=O)[C@H](CC(=O)O)NC(=O)CNC(=O)[C@@H]1CCCN1C(=O)[C@H](Cc1ccc(O)cc1)NC(=O)[C@@H](NC(=O)[C@@H]1CCCN1C(=O)[C@H](CCC(=O)O)NC(=O)[C@H](CC(C)C)NC(=O)[C@@H]1CCCN1C(=O)[C@H](C)NC(=O)COCCOCCNC(=O)COCCOCCNC(=O)CC[C@H](NC(=O)[C@H]1CC[C@H](CNC(=O)CCCCCCCCCCCCCCCCCCC(=O)O)CC1)C(=O)O)C(C)C)[C@@H](C)O)C(=O)N[C@@H](CC(N)=O)C(=O)N[C@@H](CC(C)C)C(=O)N[C@@H](CC(C)C)C(=O)N[C@H](C(=O)N[C@@H](CCCNC(=N)N)C(=O)N1CCC[C@H]1C(=O)N[C@@H](CCCNC(=N)N)C(=O)N[C@@H](Cc1ccc(O)cc1)C(N)=O)[C@@H](C)O [SEQ ID NO: 75, N-alfa-[2-(2-{2-[2-(2-{2-[(S)-4-Carboxy-4-({trans-4-[(19-carboxynonadecanoylamino)methyl]cyclohexanecarbonyl}amino)butyrylamino]-ethoxy}ethoxy)acetylamino]ethoxy}ethoxy)acetyl][Leu17,Leu30]hPP1-36] ({C20 diacid-Trx-γGlu-AEEA-AEEA}-APLEPVYPGDNATPEQLAQYAADLRRYINLLTRPRY-NH2; C-terminus assumed)
EC50 (Y2 receptor): > 1000 nM
half-life (in vivo; in vivo, 10 nmol/kg): 48 h

CC[C@H](C)[C@H](NC(=O)[C@H](Cc1ccc(O)cc1)NC(=O)[C@H](CCCNC(=N)N)NC(=O)[C@H](CCCNC(=N)N)NC(=O)[C@H](CC(C)C)NC(=O)[C@H](CC(=O)O)NC(=O)[C@H](C)NC(=O)[C@H](C)NC(=O)[C@H](Cc1ccc(O)cc1)NC(=O)[C@H](CCC(N)=O)NC(=O)[C@H](CCCCNC(=O)COCCOCCNC(=O)COCCOCCNC(=O)CC[C@H](NC(=O)CCCCCCCCCCCCCCCCC(=O)O)C(=O)O)NC(=O)[C@H](CC(C)C)NC(=O)[C@H](CCC(N)=O)NC(=O)[C@H](CCC(=O)O)NC(=O)[C@@H]1CCCN1C(=O)[C@@H](NC(=O)[C@H](C)NC(=O)[C@H](CC(N)=O)NC(=O)[C@H](CC(=O)O)NC(=O)CNC(=O)[C@@H]1CCCN1C(=O)[C@H](Cc1ccc(O)cc1)NC(=O)[C@@H](NC(=O)[C@@H]1CCCN1C(=O)[C@H](CCC(=O)O)NC(=O)[C@H](CC(C)C)NC(=O)[C@@H]1CCCN1)C(C)C)[C@@H](C)O)C(=O)N[C@@H](CC(N)=O)C(=O)N[C@@H](CC(C)C)C(=O)N[C@@H](CC(C)C)C(=O)N[C@H](C(=O)N[C@@H](CCCNC(=N)N)C(=O)N1CCC[C@H]1C(=O)N[C@@H](CCCNC(=N)N)C(=O)N[C@@H](Cc1ccc(O)cc1)C(N)=O)[C@@H](C)O [SEQ ID NO: 32, N-epsilon18-[2-(2-{2-[2-(2-{2-[(S)-4-Carboxy-4-(17-carboxyheptadecanoylamino)butyrylamino]ethoxy}ethoxy)acetylamino]-ethoxy}ethoxy)acetyl][Lys18,Leu17,Leu30]hPP2-36] (H-PLEPVYPGDNATPEQLK([AEEA-AEEA-γGlu-C18 diacid])QYAADLRRYINLLTRPRY-NH2; N-terminus and C-terminus assumed)
EC50 (Y2 receptor; [1]): > 1000 nM
half-life (in vivo; 12 nmol/kg): 46 h
